Assay results from PubChem BioAssay (NCI).
Values joined by “and” are separate entries in the source; they are usually repeats but may differ in a detail not shown here. Equal entries are not always repeated.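 Test compounds were applied to cells in 96-well plates for 48 hours at 5 doses. Abbreviation: GI50, concentration required for 50% inhibition of growth. TGI denotes the concentration required for complete inhibition of growth.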

What was measured:
Experiment in all cases: inhibition of tumour cell growth, NCI panel, 48 h
OVCAR-3 ovarian = system: OVCAR-3 ovarian
KM12 colon = system: KM12 colon
DU-145 prostate = system: DU-145 prostate
MALME-3M melanoma = system: MALME-3M melanoma
HCT-15 colon = system: HCT-15 colon
A498 renal = system: A498 renal
ACHN renal = system: ACHN renal
NCI-H23 lung = system: NCI-H23 lung
SF-268 CNS = system: SF-268 CNS
IGROV1 ovarian = system: IGROV1 ovarian

Compound	GI50 (OVCAR-3 ovarian) [µM]	TGI (OVCAR-3 ovarian)	GI50 (KM12 colon) [µM]	TGI (KM12 colon)	GI50 (DU-145 prostate) [µM]	TGI (DU-145 prostate)	GI50 (MALME-3M melanoma) [µM]	TGI (MALME-3M melanoma)	GI50 (HCT-15 colon) [µM]	TGI (HCT-15 colon)	TGI (A498 renal) [µM]	GI50 (ACHN renal) [µM]	TGI (ACHN renal)	GI50 (NCI-H23 lung) [µM]	TGI (NCI-H23 lung)	GI50 (SF-268 CNS) [µM]	TGI (SF-268 CNS)	TGI (IGROV1 ovarian) [µM]
C=C(CN(C)C)C(=O)c1ccccc1[N+](=O)[O-]	14.7	37 µM and 40.7 µM	15.6	46.1 µM and 37.5 µM	15	52.3 µM and 28.2 µM	4.74	20.2 µM and 21.1 µM	3.34	27 µM and 12.6 µM	> 92	3.79	29.5 µM and 14.8 µM	20.7	32.7 µM and 66.1 µM	20.7	51.4 µM and 58.3 µM	52.7
CN(C)CCC(=O)/C=C\c1ccccc1	–	32.2 µM	–	29.2 µM	–	–	–	32.8 µM	–	30.9 µM	39.5	–	32.5 µM	–	–	–	–	62
N#Cc1nc(NC(=O)c2ccccc2C(=O)O)c(C#N)[nH]1	–	> 100 µM	–	> 100 µM	–	> 100 µM	–	> 100 µM	–	–	> 100	–	> 100 µM	–	> 100 µM	–	> 100 µM	> 100
COc1ccc(C2c3cc4c(cc3OC(N3CCOCC3)C2C)OCO4)c(OC)c1OC (stereo not given)	–	45.6 µM	–	30.8 µM	–	–	–	–	–	> 100 µM	–	–	64.9 µM	–	> 100 µM	–	79.8 µM	70.7
COc1ccc(N(C(=O)Nc2ccc(Cl)c(Cl)c2)C2c3cccn3C(=O)N2c2ccc(Cl)c(Cl)c2)cc1 (stereo not given)	–	–	–	> 100 µM	–	> 100 µM	–	> 100 µM	–	> 100 µM	> 100	–	> 100 µM	–	> 100 µM	–	> 100 µM	> 100
CCOC(=O)C#Cc1ccccc1	–	45.7 µM	–	31.2 µM	–	> 100 µM	–	33.2 µM	–	> 100 µM	75.3	–	> 100 µM	–	34.7 µM	–	–	–
CCOC(=O)/C(O)=C1\C(=O)N(C)C(=O)C1c1cccc(OC)c1 (stereo not given)	–	> 82.1 µM	–	> 100 µM	–	–	–	> 100 µM	–	> 100 µM	> 100	–	–	–	> 100 µM	–	> 100 µM	> 100
C=C1c2nc3ccccc3n2C=C(c2ccc(Cl)cc2)N1c1ccc(OC)cc1	–	25.7 µM	–	18.7 µM	–	61.8 µM	–	13.3 µM	–	22.5 µM	> 100	–	13.5 µM	–	22.9 µM	–	–	26.1
O=C(N/N=C/c1ccc(Br)cc1)N/N=C/c1ccc(Br)cc1	–	14.9 µM	–	78.2 µM	–	> 100 µM	–	15.6 µM	–	> 100 µM	–	–	20.8 µM	–	> 100 µM	–	24 µM	27.7
CN(C)CC1CCC(CN(C)C)C1=O (stereo not given)	–	7.24 µM	–	26.7 µM	–	–	–	3.67 µM	–	4.82 µM	> 58.9	–	11.1 µM	–	12.9 µM	–	42.4 µM	15.4
CCOP(=O)(/C=C\n1ccc(N)nc1=O)OCC	–	> 100 µM	–	> 100 µM	–	> 100 µM	–	–	–	> 100 µM	–	–	> 100 µM	–	> 100 µM	–	> 100 µM	> 100
COc1cc2c(c(O)c1OC)C(=O)C(Cc1ccc(O)cc1)CO2 (stereo not given)	–	26.4 µM	–	> 100 µM	–	> 100 µM	–	> 100 µM	–	> 100 µM	–	–	> 100 µM	–	> 100 µM	–	> 100 µM	> 100
COc1cc2c(cc1OC)-c1cc3ccccc3c(=O)n1CC2	–	73.3 µM	–	53.5 µM	–	> 100 µM	–	61.5 µM	–	–	–	–	> 100 µM	–	> 100 µM	–	> 100 µM	72.8
COCCOCCOC1=CC(=O)c2c(O)ccc(O)c2C1=O	–	2.75 µM	–	3.3 µM	–	2.82 µM	–	0.399 µM	–	–	5.08	–	2.99 µM	–	3.23 µM	–	6.93 µM	3.21
COc1ccc(COCC[C@H](C)OC2OC(CO[Si](C)(C)C(C)(C)C)C(OC(=O)CCCN=[N+]=[N-])C(OC(=O)CCCN=[N+]=[N-])C2OC(=O)CCCN=[N+]=[N-])cc1 (stereo not given in full)	–	> 100 µM	–	> 100 µM	–	> 100 µM	–	> 100 µM	–	88.7 µM	> 100	–	–	–	> 100 µM	–	> 100 µM	> 100
CC12CCCC3(CC(=O)C(C)(C)C3C(=O)C1)C2 (stereo not given)	–	> 100 µM	–	> 100 µM	–	> 100 µM	–	> 100 µM	–	> 100 µM	–	–	> 100 µM	–	> 100 µM	–	> 100 µM	> 100
c1c2c(cc(-n3nnc4c3CCCCCC4)c1-n1nnc3c1CCCCCC3)CCCCCC2	–	64.8 µM	–	25.8 µM	–	–	–	–	–	19 µM	22.2	–	20.9 µM	–	–	–	23.8 µM	41.2
O=c1[nH]c(Nc2cccc(CO)c2)nc2nc[nH]c12	–	> 100 µM	–	> 100 µM	–	> 100 µM	–	> 100 µM	–	> 100 µM	–	–	> 100 µM	–	> 100 µM	–	> 100 µM	> 100
CC1(C)[C@H]2CC[C@@]13C(=O)N1C(=O)O[C@@H]([C@H]1Cl)C(Cl)(COCc1ccccc1)C(=O)OCCO[C@H]3C2 (stereo not given in full)	–	> 100 µM	–	> 100 µM	–	–	–	> 100 µM	–	> 100 µM	> 100	–	> 100 µM	–	> 100 µM	–	> 100 µM	> 100
CN(C)CCNC(=O)c1cccc2nc(-c3ccccc3)oc12	–	> 100 µM	–	> 100 µM	–	–	–	99 µM	–	> 100 µM	> 94.3	–	–	–	> 100 µM	–	> 100 µM	> 100
O=C1CSC2=NC3=C(COC/C3=C\c3ccc(Br)cc3)C(c3ccc(Br)cc3)N12 (stereo not given)	–	> 100 µM	–	> 100 µM	–	> 100 µM	–	–	–	> 100 µM	> 100	–	> 100 µM	–	> 100 µM	–	> 100 µM	> 100
CO[C@@H]1O[C@H](C(=O)c2ccccc2)[C@H]2OC(C)(C)O[C@@H]12	–	> 100 µM	–	> 100 µM	–	> 100 µM	–	–	–	> 100 µM	> 100	–	–	–	> 100 µM	–	> 100 µM	> 100
COC1CC(OC2CCC3(C)C(=CCC4C3C(OC(C)=O)C(OC(=O)CC(C)C)C3(C)C(C(C)=O)CCC43O)C2)OC(C)C1OC1CC(OC)C(OC2CC(OC)C(OC3OC(C)C(OC4OC(CO)C(O)C(O)C4O)C(OC)C3O)C(C)O2)C(C)O1 (stereo not given)	–	> 75 µM	–	> 75 µM	–	> 75 µM	–	–	–	> 75 µM	> 75	–	> 75 µM	–	> 75 µM	–	> 75 µM	> 75
O=c1cc(/C=C/c2ccccc2)[nH]c2cc3c(cc12)OCO3	2.22	5.82 µM	–	17.7 µM	–	> 100 µM	–	–	–	8.23 µM	9.87	–	28.3 µM	–	13.3 µM	7.12	30.4 µM	19.8
